Data set [1] has as its system Human peripheral blood lymphocytes. As to the kind of experiment: Assay for identifying apoptotic cells, FACS of fresh lymphocytes. The format is cell-based. On the set-up: unit not given here. As to conditions: for M1-2 / M1 / M2: Experiment No. 1; for M1 / M2 / UL / UR: mean of duplicates; for UL + UR / UL / UR: Experiment No. 2. On the procedure: Human peripheral blood lymphocytes from healthy donors were separated using Ficoll-Isopaque gradient (1.077) (Pharmacia) and used immediately. Lymphocytes were cultured in 5% CO2 in air in RPMI 1640 medium supplemented with 10% fetal calf serum, 200 μg/ml L-glutamate, 50 μg/ml penicillin, 50 μg/ml streptomycin, 50 μg/ml glutamine and 5×10^−5 M 2-β mercaptoethanol. Increasing concentrations of IL2-Bax (insoluble fraction, 6M Gu-HCl treated) were added to the lymphocytes for 22 hr. Cells were then stained with:
A. Propidium Iodide (PI, 3.5 μg/ml)
B. Propidium Iodide with a detergent for measuring cell cycle (0.7 ml of the PI buffer: 50 μg/ml PI, 0.1% Nacitrate, 0.1% Triton×100, were added to a cell pellet of ˜10^6 cells). Cells were then analyzed by FACS.

Data set [2] concerns HUT102 cells. In words: Assay for identifying apoptotic cells, FACS (PI fluorescence of nuclei). The format is cell-based, human. As to conditions: highest concentration tested, overnight. How it is done: (§1) HUT102 cells (target T cells) and CEM cells (non-target T cells) were incubated overnight with increasing concentrations of IL2-Bax. The 200×g centrifuged cell pellet was fixed in 2 ml cold 70% ethanol at 4° C. for 60 min. The cells were then centrifuged, washed in 1 ml PBS and resuspended in 0.5 ml PBS. 0.5 ml RNAse (Type I-A, Sigma, St. Louis, Mo., 1 mg/ml in PBS) was added to the sample, followed by gentle mixing with 1 ml PI (Sigma, 100 μg/ml PBS) solution. The mixed cells were incubated in the dark at room temperature for 15 min. and kept at 4° C. in the dark until measured. The PI fluorescence of the individual nuclei was measured using FACS flow cytometer. The forward scatter and side scatter of particles were simultaneously measured. Cell debris were excluded from analysis by appropriately raising the forward scatter threshold (Nicoletti et al., 1991, J. Immunol. Meth. 139:271-279).

Data set [3] relates to CEM cells. The description is as above. It counts as cell-based, human. To be noted: CEM cells lacking IL2R expression; FIGS. 9A-9C. On the procedure:
as §1

The next data set deals with MT-1 cells. In words: Cytotoxicity assay, [3H] leucine incorporation (inhibition of protein synthesis). To be noted: MT-1, IL2R-expressing; FIG. 5A. It counts as cell-based, human. On the procedure: (§2) Cells (10^4 in 0.2 ml culture medium) were seeded in 96-well microplates, followed by the addition of various concentrations of the chimeric protein (diluted with 0.25% BSA in PBS). After a 24 hour incubation, [^3H] leucine (2-5 uci/well) were added for 6-13 hr. The plates were then stored at −70° C. for several hours, followed by quick thawing at 37° C. This step was omitted with targets cells growing in suspension. The cells were harvested on filters and the incorporated radioactivity was measured with a β counter. Results were expressed as the percent incorporation of the control experiments in which the cells were not exposed to any protein. All assays were carried out in triplicates.
(§3) The cytotoxic activity of the IL2-Bax chimeric protein was tested on HUT102 and MT-1 cells (human T-cell lines), and 2B4 cells (mouse T-cells); all known to express the high affinity receptor for IL2, by a quantitative assay, in which inhibition of protein synthesis was measured. The soluble and insoluble fractions generated from treatment under three different conditions were tested in cytotoxicity assays as described by Lorberboum-Galski et al. (1988, J. Biol. Chem. 263:18650-18656). […] This may be attributed to the different number of IL2R expressed on each cell line. […]

The test system of data set [4] is HUT102 cells. Described as above. The format is cell-based, human. To be noted: HUT102, IL2R-expressing; FIG. 5A. On the procedure: as §2, §3
The next data set deals with 2B4 cells. Described as above. The format is cell-based, mouse. To be noted: 2B4, IL2R-expressing; FIG. 5A. On the procedure: as §2, §3
Data set [5] deals with CEM cells. The data set is described as above. The format is cell-based, human. As to conditions: lacking the IL2R, FIG. 5B. How it is done: as §2
(§4) The effects of IL2-Bax were also tested on various IL2R negative cells: CEM cells (a human T-cell line lacking the IL2R) and Km3 (a human non-T, non-B stem cell line). […] Since the fraction treated with Gu-HCl was active without any non-specific cytotoxicity, this fraction was further used in subsequent experiments.

For a further data set, the system named is Km3. The data set is described as above. It counts as cell-based, human. To be noted: Km3, IL2R negative; FIG. 5B. How it is done: as §2, §4

In data set [1] (dexamethasone (10^-7 M)), `C[C@@H]1C[C@H]2[C@@H]3CCC4=CC(=O)C=C[C@]4(C)[C@@]3(F)[C@@H](O)C[C@]2(C)[C@@]1(O)C(=O)CO` [dexamethasone, reference compound] gave an M1-2 of 6.7, an M1 of 9.5 and an M2 of 2.8.

For the molecule IL2-Bax, the M1-2 in data set [1] (1 μg, 22 hr) is listed as 13.5; in data set [1] (5 μg, 22 hr) it was 20; in data set [1] (10 μg, 22 hr) it was 35. The M1 in data set [1] (1 μg, 22 hr) was 17.5; in data set [1] (5 μg, 22 hr), 24.3; in data set [1] (10 μg, 22 hr), 42.1. The M2 in data set [1] (1 μg, 22 hr) is listed as 4; in data set [1] (5 μg, 22 hr), 4.3; in data set [1] (10 μg, 22 hr) it was 9.1. The “UL + UR” value stood at 10.54 in data set [1] (1 μg, 22 hr) and 31.55 in data set [1] (10 μg, 22 hr). Moreover, the UL amounted to 4.98 in data set [1] (1 μg, 22 hr) and 14.71 in data set [1] (10 μg, 22 hr). Moreover, the UR was 5.56 in data set [1] (1 μg, 22 hr) and 16.84 in data set [1] (10 μg, 22 hr). Also, the “Increase in the percentage of the apoptotic-cell population (sub-G1, M1)” value in the data set on HUT102 cells [2] was determined as 3.6 fold. Further, in the data set with CEM cells [3], the “Increase in the apoptotic cell population” value is “did not show an increase in the apoptotic cell population”. Besides, the “Cytotoxic activity (inhibition of protein synthesis)” value in the data set with MT-1 cells is given as “responsive to the chimeric protein in a dose dependent manner”; with HUT102 cells [4], “responsive to the chimeric protein in a dose dependent manner”; with 2B4 cells, “responsive to the chimeric protein in a dose dependent manner”; in the data set on CEM cells [5] it was “unaffected”; in the data set on Km3, “unaffected”.

The record behind these values is patent publication US6645490B2, “Chimeric proteins with cell-targeting specificity and apoptosis-inducing activities” (priority 1998, dated 2003).
